Data published in ChEMBL document CHEMBL4706520, “Development of disulfide-derived fructose-1,6-bisphosphatase (FBPase) covalent inhibitors for the treatment of type 2 diabetes” (Eur J Med Chem, 2020).

Assays:
[1] = biological target: Fructose-1,6-bisphosphatase 1 (Homo sapiens, UniProt P09467, R255A); test: Covalent inhibition of FBPase R254A mutant (unknown origin) measured upto 45 mins by UV-visible spectrometry analysis
[2] = biological target: Fructose-1,6-bisphosphatase 1 (Homo sapiens, UniProt P09467, S125A); test: Covalent inhibition of FBPase S124A mutant (unknown origin) measured upto 45 mins by UV-visible spectrometry analysis
Chain of Fructose-1,6-bisphosphatase 1 (Homo sapiens, UniProt P09467, S125A) (P09467 2-338 S125A limits assumed): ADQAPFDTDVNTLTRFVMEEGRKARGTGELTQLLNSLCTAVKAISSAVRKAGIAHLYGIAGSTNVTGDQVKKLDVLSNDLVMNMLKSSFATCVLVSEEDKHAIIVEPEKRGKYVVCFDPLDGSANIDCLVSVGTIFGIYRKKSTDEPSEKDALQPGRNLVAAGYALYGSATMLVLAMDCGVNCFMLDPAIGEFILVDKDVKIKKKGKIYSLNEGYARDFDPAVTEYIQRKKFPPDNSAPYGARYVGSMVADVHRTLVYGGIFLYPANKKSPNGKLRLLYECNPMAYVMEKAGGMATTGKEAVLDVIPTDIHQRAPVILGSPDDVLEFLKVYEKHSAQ

[3] = biological target: Fructose-1,6-bisphosphatase 1 (Homo sapiens, UniProt P09467, C129S); test: Covalent inhibition of FBPase C128S mutant (unknown origin) measured upto 45 mins by UV-visible spectrometry analysis
Chain of Fructose-1,6-bisphosphatase 1 (Homo sapiens, UniProt P09467, C129S) (P09467 2-338 C129S limits assumed): as the sequence (P09467 2-338 S125A limits assumed) above, with A124S, C128S counted along it

[4] = biological target: T1, Fructose-1,6-bisphosphatase 1 (Homo sapiens, UniProt P09467); test: Covalent inhibition of FBPase R243A mutant (unknown origin) measured upto 45 mins by UV-visible spectrometry analysis
T1 sequence (P09467 whole entry): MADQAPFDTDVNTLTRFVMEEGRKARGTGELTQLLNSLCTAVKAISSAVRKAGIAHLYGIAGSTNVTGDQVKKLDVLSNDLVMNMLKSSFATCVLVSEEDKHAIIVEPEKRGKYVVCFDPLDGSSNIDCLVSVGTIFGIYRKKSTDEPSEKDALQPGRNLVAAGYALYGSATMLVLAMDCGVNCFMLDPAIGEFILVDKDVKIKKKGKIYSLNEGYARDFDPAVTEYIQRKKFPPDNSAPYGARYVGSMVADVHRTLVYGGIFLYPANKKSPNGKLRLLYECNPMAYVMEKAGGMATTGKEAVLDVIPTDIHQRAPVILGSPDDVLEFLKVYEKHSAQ

Mus musculus [5] = test: Glucose lowering activity in 12 hrs fasting normoglycemic ICR mouse assessed as reduction in blood glucose level at 25 mg/kg, ip measured upto 8 hrs by glucometer; type: functional; settings: time hrs <=8
[6] = Toxicity in intraperitonially dosed ICR mouse at high dose by long-term safety study; type: organism-based; settings: in vivo, ip
HepG2 = test: Cytotoxicity against human HepG2 cells assessed as reduction in cell viability measured after 48 hrs by cell counting kit-8 assay; type: functional, cell-based; settings: HepG2, 48 h
[7] = biological target: T1, Fructose-1,6-bisphosphatase 1; test: Covalent inhibition of FBPase WT (unknown origin) measured 15 to 45 mins by UV-visible spectrometry analysis
[8] = biological target: Fructose-1,6-bisphosphatase 1 (Homo sapiens, UniProt P09467, C180S); test: Covalent inhibition of FBPase C179S mutant (unknown origin) measured upto 45 mins by UV-visible spectrometry analysis
Chain of Fructose-1,6-bisphosphatase 1 (Homo sapiens, UniProt P09467, C180S) (P09467 2-338 C180S limits assumed): as the sequence (P09467 2-338 S125A limits assumed) above, with A124S, C179S counted along it

[9] = biological target: Fructose-1,6-bisphosphatase 1 (Homo sapiens, UniProt P09467, C93S); test: Covalent inhibition of FBPase C92S mutant (unknown origin) measured upto 45 mins by UV-visible spectrometry analysis
Chain of Fructose-1,6-bisphosphatase 1 (Homo sapiens, UniProt P09467, C93S) (P09467 2-338 C93S limits assumed): as the sequence (P09467 2-338 S125A limits assumed) above, with C92S, A124S counted along it

Mus musculus [10] = test: Hypoglycemic activity in 2 hrs fasted ICR mouse model assessed as reduction in blood glucose AUC (0 to 120 mins) at 25 mg/kg, ip pretreated for 60 mins followed by glucose challenge and measured up to 120 mins by oral glucose tolerance test; type: functional; settings: 3 h, time 180 min
[11] = In vivo inhibition of FBPase activity in 12 hrs fasted ICR mouse liver assessed as reduction in blood glucose level at 25 mg/kg, ip administered for 4 hrs and measured after 4 hrs; type: functional; settings: time 8 hrs
Mus musculus [12] = test: Glucose lowering activity in 12 hrs fasting normoglycemic ICR mouse assessed as time for maximum blood glucose reduction at 25 to 50 mg/kg, ip by glucometer; type: functional; settings: dose 25-50 mg/kg
[13] = biological target: Fructose-1,6-bisphosphatase 1 (Homo sapiens, UniProt P09467, D128A); test: Covalent inhibition of FBPase D127A mutant (unknown origin) measured upto 45 mins by UV-visible spectrometry analysis
Chain of Fructose-1,6-bisphosphatase 1 (Homo sapiens, UniProt P09467, D128A) (P09467 2-338 D128A limits assumed): as the sequence (P09467 2-338 S125A limits assumed) above, with A124S, D127A counted along it

[14] = Inhibition of gluconeogenesis in C57BLKS mouse primary hepatocytes assessed as inhibition of glucose output at 100 umol/L measured after 6 hrs relative to control; type: functional; settings: Hepatocyte, dose 100 µmol/L
Mus musculus [15] = test: Hypoglycemic activity in 2 hrs fasted ICR mouse model assessed as reduction in blood glucose AUC (0 to 120 mins) at 12.5 mg/kg, ip pretreated for 60 mins followed by glucose challenge and measured up to 120 mins by oral glucose tolerance test; type: functional; settings: 3 h, time 180 min
[16] = biological target: Fructose-1,6-bisphosphatase 1 (Homo sapiens, UniProt P09467, N126A); test: Covalent inhibition of FBPase N125A mutant (unknown origin) measured upto 45 mins by UV-visible spectrometry analysis
Chain of Fructose-1,6-bisphosphatase 1 (Homo sapiens, UniProt P09467, N126A) (P09467 2-338 N126A limits assumed): as the sequence (P09467 2-338 S125A limits assumed) above, with A124S, N125A counted along it

[17] = biological target: Fructose-1,6-bisphosphatase 1 (Homo sapiens, UniProt P09467, Y259A); test: Covalent inhibition of FBPase Y258A mutant (unknown origin) measured upto 45 mins by UV-visible spectrometry analysis
Chain of Fructose-1,6-bisphosphatase 1 (Homo sapiens, UniProt P09467, Y259A) (P09467 2-338 Y259A limits assumed): as the sequence (P09467 2-338 S125A limits assumed) above, with A124S, Y258A counted along it

[18] = biological target: Fructose-1,6-bisphosphatase 1 (Homo sapiens, UniProt P09467, C39S); test: Covalent inhibition of FBPase C38S mutant (unknown origin) measured upto 45 mins by UV-visible spectrometry analysis
Chain of Fructose-1,6-bisphosphatase 1 (Homo sapiens, UniProt P09467, C39S) (P09467 2-338 C39S limits assumed): as the sequence (P09467 2-338 S125A limits assumed) above, with C38S, A124S counted along it

[19] = Toxicity in intraperitonially dosed db/db mouse at high dose by long-term safety study; type: organism-based; settings: in vivo, ip
[20] = biological target: T1, Fructose-1,6-bisphosphatase 1; test: Covalent inhibition of FBPase WT (unknown origin) measured for 45 mins by UV-visible spectrometry analysis
Hepatocyte = test: Cytotoxicity against mouse primary hepatocytes assessed as reduction in cell viability measured after 6 hrs by SRB assay; type: cell-based
[21] = biological target: Fructose-1,6-bisphosphatase 1 (Homo sapiens, UniProt P09467, C117S); test: Covalent inhibition of FBPase C116S mutant (unknown origin) measured upto 45 mins by UV-visible spectrometry analysis
Chain of Fructose-1,6-bisphosphatase 1 (Homo sapiens, UniProt P09467, C117S) (P09467 2-338 C117S limits assumed): as the sequence (P09467 2-338 S125A limits assumed) above, with C116S, A124S counted along it

Mus musculus [22] = test: Suppression of blood glucose concentration in 12 hrs fasted db/db mouse model at 25 mg/kg, ip measured upto 120 mins after oral administration of glucose at 2 g/kg for 60 min by oral glucose tolerance test; type: functional
[23] = biological target: T1, Fructose-1,6-bisphosphatase 1; test: Inhibition of wild-type full-length human liver FBPase expressed in Escherichia coli BL21 (DE3) using FBP as substrate by malachite green dye based assay; type: tissue-based
[24] = biological target: Fructose-1,6-bisphosphatase 1 (Homo sapiens, UniProt P09467, C282S); test: Covalent inhibition of FBPase C281S mutant (unknown origin) measured upto 45 mins by UV-visible spectrometry analysis
Chain of Fructose-1,6-bisphosphatase 1 (Homo sapiens, UniProt P09467, C282S) (P09467 2-338 C282S limits assumed): as the sequence (P09467 2-338 S125A limits assumed) above, with A124S, C281S counted along it

Chain of Fructose-1,6-bisphosphatase 1 (Homo sapiens, UniProt P09467, R255A) (P09467 2-338 R255A limits assumed): as the sequence (P09467 2-338 S125A limits assumed) above, with A124S, R254A counted along it

Structure (SMILES): c1csc(SSc2nccs2)n1
- IC50 [1]: 630 nM
- IC50 [2]: 460 nM
- IC50 [3]: > 500000 nM
- IC50 [4]: 270 nM
- inhibition in vivo at 25 mg/kg (Mus musculus [5]): 26%
- Activity [6]: Toxic
- IC50 (HepG2): 75100 nM
- IC50 [7]: 270 nM
- IC50 [8]: 160 nM
- IC50 [9]: 130 nM
- inhibition in vivo at 25 mg/kg (Mus musculus [10]): 22.7%
- inhibition in vivo at 25 mg/kg [11]: 57%
- Time (Mus musculus [12]): 4 h
- IC50 [13]: 180 nM
- inhibition at 100 µM [14]: 90%
- inhibition in vivo at 12.5 mg/kg (Mus musculus [15]): 24.5%
- IC50 [16]: > 250000 nM
- IC50 [17]: 3100 nM
- IC50 [18]: 310 nM
- Activity [19]: Toxic
- IC50 [20]: 90 nM
- Activity (Hepatocyte): Non-Toxic
- IC50 [21]: 190 nM
- inhibition in vivo at 25 mg/kg (Mus musculus [22]): 10.4%
- IC50 [23]: 220 nM
- IC50 [24]: 180 nM
